Active and inactive are the calls of the source. The rule behind the calls is not given here.

A word on the IC50: it is the concentration that gives 50% inhibition.

The target in assay [1] is T1, Calpain-1 catalytic subunit (Homo sapiens, UniProt P07384).
T1 sequence (P07384 whole entry): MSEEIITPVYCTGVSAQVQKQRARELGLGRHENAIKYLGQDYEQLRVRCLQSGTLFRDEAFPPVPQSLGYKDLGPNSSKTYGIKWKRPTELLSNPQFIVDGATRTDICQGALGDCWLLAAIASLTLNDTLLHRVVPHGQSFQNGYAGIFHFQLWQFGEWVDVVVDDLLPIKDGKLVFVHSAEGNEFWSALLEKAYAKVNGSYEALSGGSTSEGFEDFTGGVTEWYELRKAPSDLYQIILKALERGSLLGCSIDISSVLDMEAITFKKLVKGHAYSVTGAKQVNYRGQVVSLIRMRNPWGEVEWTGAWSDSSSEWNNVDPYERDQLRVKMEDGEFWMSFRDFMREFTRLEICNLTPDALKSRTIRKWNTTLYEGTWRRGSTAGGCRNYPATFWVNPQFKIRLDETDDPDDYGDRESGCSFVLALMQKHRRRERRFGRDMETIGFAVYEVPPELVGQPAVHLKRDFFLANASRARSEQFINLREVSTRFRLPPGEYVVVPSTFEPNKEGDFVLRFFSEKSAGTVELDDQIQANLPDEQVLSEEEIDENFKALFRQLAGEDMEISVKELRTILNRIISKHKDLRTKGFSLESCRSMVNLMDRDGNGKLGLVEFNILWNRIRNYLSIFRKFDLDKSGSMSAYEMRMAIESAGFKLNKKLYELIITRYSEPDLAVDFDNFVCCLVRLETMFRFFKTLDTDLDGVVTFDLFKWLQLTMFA
Nature of the assay: Compound was tested for its inhibitory activity against calpain […]. More on the design: […].

Assay [2] has as its target T2, Calpain small subunit 1 (Sus scrofa) (UniProt P04574).
T2 sequence (whole entry): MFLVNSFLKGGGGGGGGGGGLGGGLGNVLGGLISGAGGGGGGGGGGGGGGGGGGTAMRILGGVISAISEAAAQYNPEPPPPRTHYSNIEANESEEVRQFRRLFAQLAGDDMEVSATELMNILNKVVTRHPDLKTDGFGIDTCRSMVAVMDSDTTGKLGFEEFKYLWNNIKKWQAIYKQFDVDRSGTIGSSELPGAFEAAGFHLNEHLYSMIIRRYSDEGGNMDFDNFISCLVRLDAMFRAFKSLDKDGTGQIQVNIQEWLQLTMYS
In words: Compound was tested for its inhibitory activity against porcine erythrocyte Calpain 1 up to a concentration of 1 mM; NA=Not active.

Assay [3] deals with T1, Calpain-1 catalytic subunit. In words: Compound was tested for its inhibitory activity against calpain […] (SC488).

Compound `CC(C)c1ncc(Cc2ccccc2)[nH]c1=O` displayed an IC50 in assay [1] of 1200 nM.
With `CN1C(=O)[C@H](Cc2ccccc2)N(C)C(=O)[C@H]1Cc1ccccc1`, the outcome in assay [2] was inactive.
Same read-out and setting: the result for `CN1C(=O)[C@H](Cc2ccccc2)N(C)C(=O)[C@@H]1Cc1ccccc1` reads “inactive”.
As to `CN1C(=O)[C@H](Cc2ccc(O)cc2)N(C)C(=O)[C@@H]1Cc1ccc(O)cc1`, the IC50 in assay [3] stood at 800 nM. Moreover, the result in assay [2] was inactive.

These data come from ChEMBL document CHEMBL1133981, “Synthesis of a reported calpain inhibitor isolated from Streptomyces griseus” (Bioorg Med Chem Lett, 2001).
